Laboratory results from US11202792B2, “CD99 inhibitors and their uses” (GEORGETOWN UNIVERSITY, priority 2016, dated 2021).

Key:
[1] = tested on: IOR/OS14 OS cells; assay: Cell viability IC50, IOR/OS14; type: cell-based; details: Homo sapiens
Description: (§1) The plate was installed into the RTCA system, and the electrical impedance (represented as cell index) was measured every 10 min.
(§2) To investigate the relationship between the level of CD99 expression and drug sensitivity, the endogenous expression of CD99 was determined in a panel of 9 ES and 13 non-ES cell lines. The recombinant purified CD99-ECD protein was used to generate standard curves for immunoquantification of CD99 expression by immunoblotting (FIGS. 6B and 6C).

[2] = target: T1, CD99-ECD (extracellular domain of human CD99) (Homo sapiens, UniProt P14209); assay: SPR binding, CD99-ECD purified from bacteria
T1 construct: the extracellular domain (Asp23-Asp122) of human CD99; made in house; host or cells: Escherichia coli BL21 (DE3)
T1 sequence (P14209 23-122): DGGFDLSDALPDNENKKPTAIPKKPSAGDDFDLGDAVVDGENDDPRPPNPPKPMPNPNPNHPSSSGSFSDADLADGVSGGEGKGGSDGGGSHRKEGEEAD
Source text: The Champion™ pET104 BioEase™ Gateway® Expression System (Invitrogen (Carlsbad, Calif.)) was used to produce CD99-ECD fused with a N-terminal biotin tag, as directed by the manufacturer's instructions. Briefly, the DNA sequence encoding the extracellular domain (Asp23-Asp122) of human CD99 was amplified by PCR using pcDNA3.1 expression vector (Life Technologies (Carlsbad, Calif.)) carrying the full-length human CD99 cDNA transcript variant 1 as template. The primers were designed to include an additional C-terminal 6×His tag in the protein. The PCR product was gel purified with a QIAquick gel extraction kit (Qiagen (Hilden, Germany)) and subcloned into the pDONR 221 entry vector. The entry clone was then subjected to a recombination reaction with pET104.1-DEST destination vector, an expression vector with a N-terminal BioEase tag. The presence of an insert was confirmed by DNA sequencing.
CD99-ECD was expressed in Escherichia coli BL21 (DE3) cells. A saturated overnight culture of cells was diluted by 20-fold into fresh LB medium containing 100 μg/mL ampicillin. To induce the expression of CD99-ECD, cells were grown to OD600nm 0.5-0.7 at 37° C. and induced by the addition of isopropyl-β-D-thiogalactopyranoside to a final concentration of 1 mmol/L. The cultures were grown for an additional 3 h at 37° C. Cells were harvested by centrifugation at 8,000×g for 15 min, resuspended in 50 mmol/L sodium phosphate buffer, pH 7.4, containing 500 mmol/L NaCl, 10 mmol/L imidazole and 1 Complete EDTA-free protease inhibitor tablet/50 mL (Roche Diagnostics), and lysed by sonication. […] Protein fractions were finally eluted with a linear gradient of imidazole (10 to 1000 mmol/L) in the same buffer. The purity of the protein was assessed by SDS-PAGE followed by Coomassie staining. The eluted fractions were stored at −80° C. for further use. […]

[3] = tested on: A673 ES cells; assay: Cell viability IC50, A673; type: cell-based; details: Homo sapiens
Description: as §1, §2

[4] = tested on: RD18 rhabdomyosarcoma cells; assay: Cell viability IC50, RD18; type: cell-based; details: Homo sapiens, RD18 (RM)
Description: as §1, §2

[5] = tested on: TC-71, 6647 and RDES ES cells; assay: Soft agar colony formation assay, ES cells; type: cell-based, human; details: dose-dependent
Description: Anchorage-independent growth was determined in 0.33% agarose (Sea-Plaque Agarose, Lonza) with a 0.5% agarose underlay. […] Colonies were counted after 7-12 days.

[6] = tested on: TC-CD99-shRNA #1 cells; assay: Soft agar colony formation assay, CD99 knockdown cells; type: cell-based, human
[7] = tested on: MG63.3 OS cells transfected with DCK siRNA; assay: Response to clofarabine after DCK siRNA, OS cells; type: cell-based, human; details: MG63.3, DCK siRNA
Source text: The expression of DCK and CD99 was suppressed transiently by using a validated small interfering RNA (siRNA) duplexes targeting coding region (Invitrogen (Carlsbad, Calif.); #s186 and #s8768, respectively). Silencer™ Select Negative Control No. 2 siRNA (Invitrogen) was used as the control. Cells were transfected with DCK or CD99 or control siRNA oligonucleotides using X-tremeGene siRNA transfection reagent (Roche Diagnostics (Basel, Switzerland)) according to the manufacturer's protocol. The cells were analyzed for DCK and CD99 knockdown after 45 or 72 h by immunoblotting.

[8] = tested on: SKES-1 ES cells; assay: Cell viability IC50, SKES-1; type: cell-based; details: Homo sapiens, SK-ES1
Description: as §1, §2

[9] = tested on: IOR/OS20 OS cells; assay: Cell viability IC50, IOR/OS20; type: cell-based; details: Homo sapiens
Description: as §1, §2

[10] = tested on: TC-71, 6647 and RDES ES cells; assay: Cell cycle and cell death analysis by flow cytometry, ES cells; type: cell-based, human; details: 48 h; for hypodiploid sub-G1 peak: only in ES cells compared with U-2 OS
Description: For the evaluation of cell cycle, cell cultures were incubated with 10 μmol/L bromodeoxyuridine (BrdU) (Sigma-Aldrich) for 1 h in a CO2 atmosphere at 37° C. Harvested cells were fixed in ice-cold 70% ethanol for 30 min. After DNA denaturation with 2 N HCl for 30 min at room temperature, cells were washed with 0.1 M Na2B4O7, pH 8.5 and processed for indirect immunofluorescence staining, using α-BrdU (BD Biosciences (San Jose, Calif.)) diluted 1:4 as a primary MAb and α-mouse FITC (1:100—Thermo Scientific (Waltham, Mass.)) as a secondary antibody. After treatment with 0.5 mg/ml RNase and staining with 20 μg/ml propidium iodide, cells were and analyzed by flow cytometry (FACSCalibur; Becton Dickinson (Franklin Lakes, N.J.)) for cell cycle evaluation and for assessing cell death by DNA content analysis.

SMILES	IC50 [1]	Kd [2]	IC50 [3]	IC50 [4]	colony formation (anchorage-independent growth) [5]	colony formation in CD99 knockdown cells [6]	response after inhibiting DCK protein expression [7]	IC50 [8]	IC50 [9]	hypodiploid sub-G1 peak [10]	cell cycle effect ([10]; ES cells)
Nc1nc(Cl)nc2c1ncn2[C@@H]1O[C@H](CO)[C@@H](O)[C@@H]1F [clofarabine]	> 10 µM	4.6 ± 3.2 µM	1.9 µM	970 nM	significantly inhibited	did not result in further decrease	complete resistance	300 nM	> 10 µM	significant increase	
Nc1nc(Cl)nc2c1ncn2[C@H]1C[C@H](O)[C@@H](CO)O1 [cladribine]	> 30 µM	3.8 ± 2.4 µM	7.42 µM	3670 nM	significantly inhibited			430 nM	> 30 µM	significant increase	cell cycle arrest in S phase
